Experimental data: patent publication US20100063026A1, “ANTIBACTERIAL QUINOLINE DERIVATIVES” (priority 2007, published 2010)
Converted amounts (≈) assume the structure as drawn.

What was measured:
[1] = system: Staphylococcus aureus (ATCC29213); assay: Microtitre plate IC90 determination against non-mycobacterial strains: S. aureus; format: cell-based; conditions: 90% inhibitory concentration for bacterial growth, 37° C., resazurin fluorescence; for IC90 STA 1 B29213: 24 hours; for IC90: Staphylococcus aureus, ATCC29213, 24 h, read-out: IC90 STA 1 B29213
Experimental: (§1) The bacteria used in this study were grown overnight in flasks containing 100 ml Mueller-Hinton Broth (Becton Dickinson-cat. no. 275730) in sterile de-ionized water, with shaking, at 37° C. Stocks (0.5 ml/tube) were stored at -70° C. until use. Bacteria titrations were performed in microtiter plates to detect the TCID50, in which the TCID50 represents the dilution that gives rise to bacterial growth in 50% of inoculated cultures. In general, an inoculum level of approximately 100 TCID50 was used for susceptibility testing. […] Therefore resazurin (0.6 mg/ml) was added in a volume of 20 μl to all wells 3 hours after inoculation, and the plates were re-incubated overnight. A change in colour from blue to pink indicated the growth of bacteria.

M. smegmatis ATCC607 = assay: In-vitro anti-bacterial activity against strain M. smegmatis ATCC607; conditions: for IC90 MSM 1 ATCC607: 90% inhibitory concentration for bacterial growth, 48 hours, 37° C., Alamar Blue fluorescence; for IC90: Mycolicibacterium smegmatis, ATCC607, 48 h, read-out: IC90 MSM 1 ATCC607, 90% inhibitory concentration for bacterial growth, 37° C., Alamar Blue fluorescence
Experimental: Flat-bottom, sterile 96-well plastic microtiter plates were filled with 180 μl of sterile deionized water, supplemented with 0.25% BSA. Subsequently, stock solutions (7.8× final test concentration) of compounds were added in 45 μl volumes to a series of duplicate wells in column 2 so as to allow evaluation of their effects on bacterial growth. Serial five-fold dilutions (45 μl in 180 μl) were made directly in the microtiter plates from column 2 to 11 using a customised robot system (Zymark Corp., Hopkinton, Mass.). Pipette tips were changed after every 3 dilutions to minimize pipetting errors with high hydrophobic compounds. Untreated control samples with (column 1) and without (column 12) inoculum were included in each microtiter plate. Approximately 250 CFU per well of bacteria inoculum, in a volume of 100 μl in 2.8× Mueller-Hinton broth medium, was added to the rows A to H, except column 12. The same volume of broth medium without inoculum was added to column 12 in row A to H. The cultures were incubated at 37° C. for 48 hours in a humidified 5% CO2 atmosphere (incubator with open air valve and continuous ventilation). At the end of incubation, two days after inoculation, the bacterial growth was quantitated fluorometrically. Therefore Alamar Blue (10×) was added to all wells in a volume of 20 μl and plates were incubated for another 2 hours at 50° C.
The fluorescence was read in a computer-controlled fluorometer (Cytofluor, Biosearch) at an excitation wavelength of 530 nm and an emission wavelength of 590 nm (gain 30). The percentage growth inhibition achieved by the compounds was calculated according to standard methods and expressed as IC90 (μg/ml) which defines the 90% inhibitory concentration for bacterial growth.

[2] = system: Streptococcus pneumoniae (ATCC6305); assay: Microtitre plate IC90 determination against non-mycobacterial strains: S. pneumoniae; format: cell-based; conditions: 90% inhibitory concentration for bacterial growth, 37° C., resazurin fluorescence; for IC90: Streptococcus pneumoniae, ATCC6305, 24 h, read-out: IC90 SPN 1 6305; for IC90 SPN 1 6305: 24 hours
Experimental: as §1

SMILES | IC90 STA 1 B29213 [1] [µg/mL] | IC90 MSM 1 ATCC607 (M. smegmatis ATCC607) [µg/mL] | IC90 [2] [µg/mL] | IC90 SPN 1 6305 [2] [µg/mL] | IC90 (M. smegmatis ATCC607) [µg/mL] | IC90 [1] [µg/mL]
COc1nc2ccc(Br)cc2cc1C(c1ccccc1)C(O)(CCCCN1CC2CC1CN2Cc1ccccc1)CCc1ccccc1 (single isomer, unassigned) [Compound 12] | 11.2 (≈ 15.9 µM) | 2.2 (≈ 3.12 µM) | 2.2 (≈ 3.12 µM) |  |  | 
COc1nc2ccc(Br)cc2cc1C(c1ccccc1)C(O)(CCCCCN1CCCN(C)CC1)c1ccc2ccccc2c1 (single isomer, unassigned) [Compound 55] | 2.1 (≈ 3.15 µM) | 2.1 (≈ 3.15 µM) |  | 0.4 (≈ 0.6 µM) |  | 
COc1nc2ccc(Br)cc2cc1C(c1ccccc1)C(O)(CCCCN(C)CCc1ccccn1)c1ccccc1 (stereo not shown) [Compound 7] | 2.0 (≈ 3.2 µM) | 2.0 (≈ 3.2 µM) |  | 2.0 (≈ 3.2 µM) |  | 
COc1nc2ccc(Br)cc2cc1C(c1ccccc1)C(O)(CCCCN1CCN(C2CCN(Cc3ccccc3)C2)CC1)c1ccc2ccccc2c1 (single isomer, unassigned) [Compound 32] | 2.5 (≈ 3.19 µM) | 5.6 (≈ 7.14 µM) |  | 2.5 (≈ 3.19 µM) |  | 
COc1nc2ccc(Br)cc2cc1C(c1ccccc1)C(O)(CCCCN1CCC1)c1ccccc1 (single isomer, unassigned) [Compound 41] | 1.7 (≈ 3.12 µM) |  |  | 1.7 (≈ 3.12 µM) | 1.7 (≈ 3.12 µM) | 
COc1nc2ccc(Br)cc2cc1C(c1ccccc1)C(O)(CCCCN(C)CCc1ccccn1)c1ccccc1 (stereo not shown) [Compound 8] | 2.0 (≈ 3.2 µM) | 2.0 (≈ 3.2 µM) |  | 2.2 (≈ 3.52 µM) |  | 
COc1nc2ccc(Br)cc2cc1C(c1ccccc1)C(O)(CCCCN1CC2CC1CN2C1CCN(C)CC1)c1ccc2ccccc2c1 (single isomer, unassigned) [Compound 63] |  |  |  |  | 2.3 (≈ 3.13 µM) | 2.3 (≈ 3.13 µM)
COc1nc2ccc(Br)cc2cc1C(c1ccccc1)C(O)(CCCCNC1CC2CCC1C2)c1ccc2ccccc2c1 (single isomer, unassigned) [Compound 38] |  |  | 2.6 (≈ 4 µM) |  | 2.1 (≈ 3.23 µM) | 10.3 (≈ 15.9 µM)
COc1nc2ccc(Br)cc2cc1C(c1ccccc1)C(O)(CCCCNC1CC2CCC1C2)c1ccccc1 (stereo not shown) [Compound 60] |  |  |  |  | 1.9 (≈ 3.17 µM) | 1.9 (≈ 3.17 µM)
COc1nc2ccc(Br)cc2cc1C(c1ccccc1)C(O)(CCCCN1CC2CC1CN2CC(C)C)c1ccc2ccccc2c1 (stereo not shown) [Compound 52] |  |  | 0.5 (≈ 0.722 µM) |  | 2.2 (≈ 3.18 µM) | 2.2 (≈ 3.18 µM)
COc1nc2ccc(Br)cc2cc1C(c1ccccc1)C(O)(CCCCN1CCCN(C)CC1)c1ccc2ccccc2c1 (stereo not shown) [Compound 35a] | 2.1 (≈ 3.22 µM) | 0.9 (≈ 1.38 µM) |  | 0.4 (≈ 0.613 µM) |  | 
COc1nc2ccc(Br)cc2cc1C(c1ccccc1)C(O)(CCCCN1CCCNCC1)c1ccccc1 (single isomer, unassigned) [Compound 47] |  |  | 0.9 (≈ 1.53 µM) |  | 1.9 (≈ 3.23 µM) | 1.9 (≈ 3.23 µM)
COc1nc2ccc(Br)cc2cc1C(c1ccccc1)C(O)(CCCCNCCN(C)C)c1ccccc1 (single isomer, unassigned) [Compound 65] |  |  |  |  | 1.8 (≈ 3.12 µM) | 1.8 (≈ 3.12 µM)
COc1ccc(N2CCN(CCCCC(O)(c3ccc4ccccc4c3)C(c3ccccc3)c3cc4cc(Br)ccc4nc3OC)CC2)cc1 (single isomer, unassigned) [Compound 27] | 18.4 (≈ 25.2 µM) |  |  |  |  | 
COc1nc2ccc(Br)cc2cc1C(c1ccccc1)C(O)(CCCCN1CC2CC1CN2C)c1ccc2ccccc2c1 (single isomer, unassigned) [Compound 56] |  |  |  |  | 2.1 (≈ 3.23 µM) | 2.3 (≈ 3.53 µM)
COc1nc2ccc(Br)cc2cc1C(c1ccccc1)C(O)(CCCCN1CC2CC1CN2C)c1ccc2ccccc2c1 (single isomer, unassigned) [Compound 57] | 2.3 (≈ 3.53 µM) | 2.1 (≈ 3.23 µM) |  |  |  | 
COc1nc2ccc(Br)cc2cc1C(c1ccccc1)C(O)(CCCCN1CC2CC1CN2CCN(C)C)c1ccc2ccccc2c1 (single isomer, unassigned) [Compound 61] |  |  |  |  | 2.2 (≈ 3.11 µM) | 2.2 (≈ 3.11 µM)
CN1CCCN(CCCCC(O)(c2ccc3ccccc3c2)C(c2ccccc2)c2cc3cc(Br)ccc3[nH]c2=O)CC1 (single isomer, unassigned) [Compound 45] | 2.3 (≈ 3.6 µM) |  |  |  | 2 (≈ 3.13 µM) | 
COc1nc2ccc(Br)cc2cc1C(c1ccccc1)C(O)(CCCCN1CC2CC1CN2CCN(C)C)c1ccc2ccccc2c1 (single isomer, unassigned) [Compound 62] | 2.2 (≈ 3.11 µM) |  |  |  |  | 
